In general, IC50 refers to the concentration that inhibits the measured activity by half.

A value given as a limit tells only on which side of the number the result lay.

One assay addresses T1, human Nav1.7 (Homo sapiens, UniProt Q15858).
T1 construct: expressed in transfected cells; host or cells: CHO
The assay is described as follows: FRET assay (EFS, FDSS) on CHO cells expressing human NaV1.7 channels. The format is cell-based. Conditions: for IC50: FRET assay, CHO cells expressing human NaV1.7, read-out: IC50 against Nav1.7. As for the experimental part:
This screen was used to determine the effects of compounds on human NaV1.3, human Nav1.7, and human Nav1.5 channels, utilising electrical field stimulation (EFS) system in 96-well plate format on FDSS (Hamamatsu Photonics) platform. The change of membrane potential was monitored with FRET dye pair, oxonol (DiSBAC2(3)) and coumarin (CC2-DMPE).
CHO cells expressing human NaV1.7 channels were grown in T225 flasks, in a 5% CO2 humidified incubator to about 80% confluence. Media composition consisted of HAM/F12 with Glutamax I, 10% FCS, 100 units/ml Penicillin and 100 microgram/ml Hygromycin.
Protocol: • Seeded each cell lines (1×10^5 cells/well) into poly-D-lysine coated 96-well plates prior to experimentation. • Incubated at 37° C. in 5% CO2 for 24 hours. • Washed each well with assay buffer (140 mM NaCl, 4.5 mM KCl, 10 mM D-Glucose, 2 mM CaCl2, 1 mM MgCl2, 10 mM HEPES, pH 7.4 adjusted with NaOH) twice. • Added 1st loading solution containing 10 microM CC2-DMPE and 0.06% Pluronic F-127 in assay buffer. • Incubated the plate at room temperature in dark for 1 hour. • Removed 1st loading solution and added 2nd loading solution containing 15 microM DiSBAC2(3), 0.555 mM VABSC-1 and 0.004% Pluronic F-127 in assay buffer. • Placed the plate under the dark at room temperature for 25 minutes. • Added compound solutions into the assay plate. • Set the assay plate in FDSS and placed an EFS device on the plate. • Measured EFS-induced fluorescent response by FDSS.
The data were analyzed and reported as normalized ratios of intensities measured at […]. The process of calculating these ratios was performed as follows:
[formula] This analysis was performed using a computerized specific program designed for FDSS generated data. Fluorescence ratio values were plotted using XLfit to determine an IC50 value for each compound.

Another assay concerns the target T2, human NaV1.3 (Homo sapiens, UniProt Q9NY46).
T2 construct: expressed in transfected cells; host or cells: HEK293
The assay is described as follows: FRET assay (EFS, FDSS) on HEK293 cells expressing human NaV1.3 channels. Format: cell-based. Conditions: for IC50: FRET assay, HEK293 cells expressing human NaV1.3, read-out: IC50 against Nav1.3. The gist of the method:
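Membrane potential in HEK293 cells stably expressing human NaV1.3, read by FRET (CC2-DMPE 10 µM / DiSBAC2(3) 15 µM with 0.555 mM VABSC-1) after electrical field stimulation, in HEPES-buffered saline pH 7.4. Compounds added after dye loading at room temperature. IC50 from normalized 440 nm fluorescence ratios.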

Setting [1] is: comparison compound of WO 2008147864.

T1 sequence (Q15858 whole entry): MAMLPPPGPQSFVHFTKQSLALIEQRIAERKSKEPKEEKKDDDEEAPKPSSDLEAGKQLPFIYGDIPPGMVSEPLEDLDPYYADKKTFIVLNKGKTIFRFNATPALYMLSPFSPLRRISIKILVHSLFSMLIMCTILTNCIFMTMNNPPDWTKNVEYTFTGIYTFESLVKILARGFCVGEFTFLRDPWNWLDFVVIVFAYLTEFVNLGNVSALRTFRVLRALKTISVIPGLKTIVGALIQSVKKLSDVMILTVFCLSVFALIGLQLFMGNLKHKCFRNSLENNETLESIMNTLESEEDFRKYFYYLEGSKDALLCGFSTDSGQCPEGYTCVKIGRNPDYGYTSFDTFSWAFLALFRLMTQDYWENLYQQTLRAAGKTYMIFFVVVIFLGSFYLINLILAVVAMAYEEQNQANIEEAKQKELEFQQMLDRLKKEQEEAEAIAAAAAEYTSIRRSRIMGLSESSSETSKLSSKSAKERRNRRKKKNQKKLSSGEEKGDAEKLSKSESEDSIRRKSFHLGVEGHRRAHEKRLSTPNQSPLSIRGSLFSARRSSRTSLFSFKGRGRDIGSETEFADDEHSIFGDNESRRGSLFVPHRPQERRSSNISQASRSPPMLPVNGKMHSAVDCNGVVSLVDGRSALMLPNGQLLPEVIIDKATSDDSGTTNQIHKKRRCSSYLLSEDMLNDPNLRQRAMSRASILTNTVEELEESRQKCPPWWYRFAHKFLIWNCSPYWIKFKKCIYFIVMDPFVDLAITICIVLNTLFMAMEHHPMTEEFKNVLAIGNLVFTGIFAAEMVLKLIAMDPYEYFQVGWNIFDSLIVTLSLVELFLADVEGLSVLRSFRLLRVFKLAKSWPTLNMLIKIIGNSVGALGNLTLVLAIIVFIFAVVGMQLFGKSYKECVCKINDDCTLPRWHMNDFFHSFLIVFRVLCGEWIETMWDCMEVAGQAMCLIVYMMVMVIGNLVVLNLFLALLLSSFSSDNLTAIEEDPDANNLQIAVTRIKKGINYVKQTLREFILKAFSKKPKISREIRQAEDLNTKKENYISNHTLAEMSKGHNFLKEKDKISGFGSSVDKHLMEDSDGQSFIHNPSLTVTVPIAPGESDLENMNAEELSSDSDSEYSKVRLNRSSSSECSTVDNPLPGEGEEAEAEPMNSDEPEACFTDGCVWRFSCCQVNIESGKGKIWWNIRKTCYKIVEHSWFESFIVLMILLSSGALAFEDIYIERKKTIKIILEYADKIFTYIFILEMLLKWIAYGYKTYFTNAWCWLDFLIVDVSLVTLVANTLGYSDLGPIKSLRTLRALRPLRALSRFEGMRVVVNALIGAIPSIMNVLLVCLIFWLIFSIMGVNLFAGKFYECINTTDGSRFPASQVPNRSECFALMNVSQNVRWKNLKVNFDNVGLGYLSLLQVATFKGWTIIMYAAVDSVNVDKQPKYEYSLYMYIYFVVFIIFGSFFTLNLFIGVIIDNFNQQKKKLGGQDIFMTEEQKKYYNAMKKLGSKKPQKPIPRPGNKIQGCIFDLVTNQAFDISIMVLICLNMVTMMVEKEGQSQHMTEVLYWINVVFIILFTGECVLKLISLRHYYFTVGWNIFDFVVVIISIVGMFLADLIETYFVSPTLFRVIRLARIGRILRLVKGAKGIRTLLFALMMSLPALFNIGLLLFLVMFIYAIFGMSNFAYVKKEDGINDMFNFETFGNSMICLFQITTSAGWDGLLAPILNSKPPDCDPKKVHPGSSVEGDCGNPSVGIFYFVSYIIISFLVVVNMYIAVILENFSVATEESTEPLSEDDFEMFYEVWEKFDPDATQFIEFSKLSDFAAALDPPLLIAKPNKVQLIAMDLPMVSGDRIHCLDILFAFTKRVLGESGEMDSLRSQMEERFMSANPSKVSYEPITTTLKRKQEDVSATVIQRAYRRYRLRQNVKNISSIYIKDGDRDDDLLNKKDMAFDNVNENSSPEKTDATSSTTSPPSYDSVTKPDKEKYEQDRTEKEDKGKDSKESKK
T2 sequence (Q9NY46 whole entry): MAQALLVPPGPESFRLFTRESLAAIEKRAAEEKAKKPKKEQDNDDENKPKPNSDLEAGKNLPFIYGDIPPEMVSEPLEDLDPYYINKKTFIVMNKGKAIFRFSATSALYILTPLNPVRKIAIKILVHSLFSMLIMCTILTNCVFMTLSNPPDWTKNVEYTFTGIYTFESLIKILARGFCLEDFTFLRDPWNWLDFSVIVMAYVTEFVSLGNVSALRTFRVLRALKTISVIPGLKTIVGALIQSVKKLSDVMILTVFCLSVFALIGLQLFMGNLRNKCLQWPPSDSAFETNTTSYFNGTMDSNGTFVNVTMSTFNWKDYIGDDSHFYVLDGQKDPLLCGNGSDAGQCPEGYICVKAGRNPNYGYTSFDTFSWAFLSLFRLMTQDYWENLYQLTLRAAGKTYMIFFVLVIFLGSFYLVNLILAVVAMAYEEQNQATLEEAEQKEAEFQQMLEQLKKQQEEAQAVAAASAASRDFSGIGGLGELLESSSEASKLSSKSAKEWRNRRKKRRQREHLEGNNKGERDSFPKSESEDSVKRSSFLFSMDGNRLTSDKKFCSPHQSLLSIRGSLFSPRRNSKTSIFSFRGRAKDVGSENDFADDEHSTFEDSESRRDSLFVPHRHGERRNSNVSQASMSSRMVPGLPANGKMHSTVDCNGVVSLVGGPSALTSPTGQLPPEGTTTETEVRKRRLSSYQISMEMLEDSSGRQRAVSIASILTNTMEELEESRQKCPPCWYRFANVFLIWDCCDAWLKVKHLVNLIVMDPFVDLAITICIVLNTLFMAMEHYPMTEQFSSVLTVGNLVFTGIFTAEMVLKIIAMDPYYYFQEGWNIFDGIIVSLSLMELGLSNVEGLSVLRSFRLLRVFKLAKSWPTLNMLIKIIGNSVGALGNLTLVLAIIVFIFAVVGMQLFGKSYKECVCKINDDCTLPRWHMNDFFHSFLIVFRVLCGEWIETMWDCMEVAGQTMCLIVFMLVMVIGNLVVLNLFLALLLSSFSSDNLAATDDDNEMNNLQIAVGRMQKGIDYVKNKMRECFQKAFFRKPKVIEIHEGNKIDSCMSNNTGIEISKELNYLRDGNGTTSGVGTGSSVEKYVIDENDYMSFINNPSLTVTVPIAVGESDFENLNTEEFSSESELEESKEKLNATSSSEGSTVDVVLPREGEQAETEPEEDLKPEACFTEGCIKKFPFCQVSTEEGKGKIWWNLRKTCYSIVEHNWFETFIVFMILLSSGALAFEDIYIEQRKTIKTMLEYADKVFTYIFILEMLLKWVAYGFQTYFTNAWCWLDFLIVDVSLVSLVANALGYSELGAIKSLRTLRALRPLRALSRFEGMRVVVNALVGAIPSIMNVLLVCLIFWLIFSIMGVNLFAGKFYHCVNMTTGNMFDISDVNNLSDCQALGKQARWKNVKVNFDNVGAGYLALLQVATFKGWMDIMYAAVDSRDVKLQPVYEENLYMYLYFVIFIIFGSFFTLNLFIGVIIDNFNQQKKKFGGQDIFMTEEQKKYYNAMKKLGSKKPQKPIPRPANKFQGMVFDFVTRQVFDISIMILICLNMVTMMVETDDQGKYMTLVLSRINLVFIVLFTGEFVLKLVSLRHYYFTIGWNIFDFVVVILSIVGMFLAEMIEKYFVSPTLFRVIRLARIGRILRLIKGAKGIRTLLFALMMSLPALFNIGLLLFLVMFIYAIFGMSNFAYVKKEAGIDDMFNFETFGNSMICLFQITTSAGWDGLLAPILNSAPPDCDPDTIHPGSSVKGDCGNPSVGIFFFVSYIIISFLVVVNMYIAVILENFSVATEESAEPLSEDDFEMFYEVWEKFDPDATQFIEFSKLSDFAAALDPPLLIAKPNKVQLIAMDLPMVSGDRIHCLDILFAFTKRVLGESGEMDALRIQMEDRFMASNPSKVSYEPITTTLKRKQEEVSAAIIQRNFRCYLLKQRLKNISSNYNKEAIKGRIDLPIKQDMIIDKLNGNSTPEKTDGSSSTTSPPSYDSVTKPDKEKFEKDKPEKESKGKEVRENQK

Regarding `Cc1nc(-c2cccc(C(=O)N3CCN(c4cc(OCC(C)C)ncn4)CC3)c2)cs1` [Example 187, (4-(6-isobutoxypyrimidin-4-yl)piperazin-1-yl)(3-(2-methylthiazol-4-yl)phenyl)methanone], the IC50 at human Nav1.7 and on human NaV1.3 was under 3 µM in each case.
With `Cc1nc(-c2ccccc2)oc1C(=O)N1CCN(c2cc(OCC(C)C)ncn2)CC1` [Example 208, (4-(6-isobutoxypyrimidin-4-yl)piperazin-1-yl)(4-methyl-2-phenyloxazol-5-yl)methanone], the concentration for half-maximal inhibition (IC50) at human Nav1.7 and on human NaV1.3 was under 3 µM throughout.
On to `O=C(c1ccc2c(=O)n(CCc3ccccc3)c(=O)[nH]c2c1)N1CCN(c2ncccn2)CC1` [3-(2-phenylethyl)-7-[(4-pyrimidin-2-ylpiperazin-1-yl)carbonyl]quinazoline-2,4(1H,3H)-dione], for which the “activity against NaV1.7” value at human Nav1.7 (setting [1]) is listed as “no activity”. For the same compound, on human NaV1.3 (setting [1]), the “activity against NaV1.3” value is given as “no activity”.
As for `CC(C)COc1cc(N2CCN(C(=O)CCOc3ccccc3)CC2)ncn1` [Example 131, 1-(4-(6-isobutoxypyrimidin-4-yl)piperazin-1-yl)-3-phenoxypropan-1-one], the IC50 at human Nav1.7 and on human NaV1.3 was under 3 µM in each case.
As for `CC(C)COc1cc(N2CCN(C(=O)COc3cccc(OC(F)(F)F)c3)CC2)ncn1` [Example 145, 1-(4-(6-isobutoxypyrimidin-4-yl)piperazin-1-yl)-2-(3-(trifluoromethoxy)phenoxy)ethanone], the IC50 at human Nav1.7 and at human NaV1.3 was under 3 µM in each case.
Take `Cn1nc(C(=O)N2CCN(c3cc(OCC(F)(F)F)ncn3)CC2)c2cc(F)ccc21` [Example 212, (5-fluoro-1-methyl-1H-indazol-3-yl)(4-(6-(2,2,2-trifluoroethoxy)pyrimidin-4-yl)piperazin-1-yl)methanone]: the IC50 on human Nav1.7 and on human NaV1.3 was under 3 µM each time.
Take `CC(C)COc1cc(N2CCN(C(=O)CSc3ccccc3)CC2)ncn1` [Example 120, 1-(4-(6-isobutoxypyrimidin-4-yl)piperazin-1-yl)-2-(phenylthio)ethanone]: the IC50 on human Nav1.7 and on human NaV1.3 was under 3 µM throughout.
On to `CC(C)COc1cc(N2CCN(C(=O)COc3cccc4cccnc34)CC2)ncn1` [Example 77, 1-(4-(6-isobutoxypyrimidin-4-yl)piperazin-1-yl)-2-(quinolin-8-yloxy)ethanone], for which the IC50 on human Nav1.7 and at human NaV1.3 was under 3 µM each time.
Consider `CC(C)Oc1cc(N2CCN(C(=O)c3csc(-c4ccccc4)n3)CC2)ncn1` [Example 165, (4-(6-isopropoxypyrimidin-4-yl)piperazin-1-yl)(2-phenylthiazol-4-yl)methanone], for which the IC50 on human Nav1.7 and at human NaV1.3 was under 3 µM throughout.
As for `CC(C)COc1cc(N2CCN(C(=O)CCOc3ccc(F)cc3)CC2)ncn1` [Example 89, 3-(4-fluorophenoxy)-1-(4-(6-isobutoxypyrimidin-4-yl)piperazin-1-yl)propan-1-one], the IC50 on human Nav1.7 and at human NaV1.3 was under 3 µM each time.
For `CC(C)COc1cc(N2CCN(C(=O)CNC(=O)c3ccc(OCC(F)(F)F)nc3)CC2)ncn1` [Example 74, N-(2-(4-(6-isobutoxypyrimidin-4-yl)piperazin-1-yl)-2-oxoethyl)-6-(2,2,2-trifluoroethoxy)nicotinamide], the half-inhibitory concentration (IC50) at human Nav1.7 and on human NaV1.3 was under 3 µM in each case.
`CC(C)COc1cc(N2CCN(C(=O)COc3cccc4c3ccn4C)CC2)ncn1` [Example 141, 1-(4-(6-isobutoxypyrimidin-4-yl)piperazin-1-yl)-2-((1-methyl-1H-indol-4-yl)oxy)ethanone]: the IC50 on human Nav1.7 and at human NaV1.3 was under 3 µM throughout.
Turning to `CC(C)COc1cc(N2CCN(C(=O)c3cc(-c4ccccc4)n(C)n3)CC2)ncn1` [Example 133, (4-(6-isobutoxypyrimidin-4-yl)piperazin-1-yl)(1-methyl-5-phenyl-1H-pyrazol-3-yl)methanone], the IC50 at human Nav1.7 and on human NaV1.3 was under 3 µM in each case.
Take `CC(C)COc1cc(N2CCN(C(=O)COc3ccc(F)cc3)CC2)ncn1` [Example 24, 2-(4-fluorophenoxy)-1-(4-(6-isobutoxypyrimidin-4-yl)piperazin-1-yl)ethanone]: the IC50 on human Nav1.7 and on human NaV1.3 was under 3 µM throughout.
On to `O=C(Cn1nc2ccccc2n1)N1CCN(c2cc(OCC(F)(F)F)ncn2)CC1` [Example 146, 2-(2H-benzo[d][1,2,3]triazol-2-yl)-1-(4-(6-(2,2,2-trifluoroethoxy)pyrimidin-4-yl)piperazin-1-yl)ethanone], for which the IC50 on human Nav1.7 and on human NaV1.3 was under 3 µM each time.
Turning to `CC(C)COc1cc(N2CCN(C(=O)c3csc(Cc4ccccc4)n3)CC2)ncn1` [Example 167, (2-benzylthiazol-4-yl)(4-(6-isobutoxypyrimidin-4-yl)piperazin-1-yl)methanone], the IC50 at human Nav1.7 and on human NaV1.3 was under 3 µM in each case.
Regarding `CC(C)COc1cc(N2CCN(C(=O)COCc3ccc(F)cc3)CC2)ncn1` [Example 168, 2-((4-fluorobenzyl)oxy)-1-(4-(6-isobutoxypyrimidin-4-yl)piperazin-1-yl)ethanone], the IC50 at human Nav1.7 and on human NaV1.3 was under 3 µM in each case.
As to `CC(C)COc1cc(N2CCN(C(=O)c3nn(C)c4ccccc34)CC2)ncn1` [Example 22, (4-(6-isobutoxypyrimidin-4-yl)piperazin-1-yl)(1-methyl-1H-indazol-3-yl)methanone], the IC50 on human Nav1.7 and at human NaV1.3 was under 3 µM throughout.
Regarding `COc1cccc(OCC(=O)N2CCN(c3cc(OCC(C)C)ncn3)CC2)c1` [Example 70, 1-(4-(6-isobutoxypyrimidin-4-yl)piperazin-1-yl)-2-(3-methoxyphenoxy)ethanone], the half-inhibitory concentration (IC50) at human Nav1.7 and at human NaV1.3 was under 3 µM throughout.

For the origin of these results see US8999974B2, “Acyl piperazine derivatives as TTX-S blockers” (Raqualia Pharma Inc., priority 2010, dated 2015).
